Experimental data reported in PubChem BioAssay AID1996.
Converted amounts (≈) assume the structure as drawn.

Conditions: buffer; pH 7.4; 200.0 µM

Compound | solubility kinetic [µg/mL]
Cc1ccc(-c2nc(-c3ccncc3)no2)cc1C | 0.7 (≈ 2.79 µM)
O=C(Oc1ccc(Oc2ccccc2)cc1)N1CCC(O)CC1 | 34.9 (≈ 111 µM)
COc1cc(OC)nc(NC(=O)NS(=O)(=O)c2ccccc2Cl)n1 | 45 (≈ 121 µM)
CC1CCCC(C)N1CC(O)COC1CCC(C(C)(C)C)CC1.Cl (centres undefined) | 46.9
COc1ccc(NC(=O)Nc2nc3ccccc3s2)cc1 | < 0.2
COC(=O)Nc1ccc2c(c1)Nc1ccccc1CC2 | 0.5 (≈ 1.86 µM)
Cc1ccc(C)c(N2C(=O)CC(Cc3ccc(Cl)cc3)C2=O)c1 (centres undefined) | 17.6 (≈ 53.7 µM)
CC(=O)Nc1ccc(C(=O)COC(=O)c2cccs2)c(F)c1 | 9.6 (≈ 29.9 µM)
O=C(COC(=O)c1ccc(Br)o1)Nc1cccc(S(=O)(=O)N2CCCCC2)c1 | 9.3 (≈ 19.7 µM)
C/C=C/C=C/C(=O)OCC(=O)Nc1ccc(Cl)cc1 | 6.2 (≈ 22.2 µM)
Cc1ccc(F)cc1NC(=O)C1C2CCC(O2)C1C(=O)O (centres undefined) | > 44
CSC(=Nc1ccccc1)C(C#N)c1nc2ccccc2[nH]1 (centres undefined) | 0.3 (≈ 0.979 µM)
Cc1ccc2c(C)c(C(=O)NCCN3CCOC3=O)oc2c1C | > 47.5
S=C(NCc1cccnc1)Nc1ccc(Cl)cc1Cl | > 46.8
Cc1cc(O)c(N=Cc2cc3c(cc2[N+](=O)[O-])OCO3)cc1C | 7 (≈ 22.3 µM)
O=C(Nc1nc(-c2ccccn2)cs1)Nc1ccc(F)cc1F | 2.4 (≈ 7.22 µM)
O=C(O)CSc1nc2c(c(C(F)(F)F)n1)CCCC2 | > 43.8
OCCC1CN(Cc2cccnc2)CCN1CCc1ccccc1 (centres undefined) | 42.4 (≈ 130 µM)
COCCNC(=S)N1CCC(Cc2ccccc2)CC1 | > 43.9
O=C1OCc2ccc(NC(=O)c3ccccc3C(=O)O)cc21 | > 44.6
O=C1Nc2ccccc2OCc2c1cccc2[N+](=O)[O-] | 3.9 (≈ 14.4 µM)
CN1CCN(c2ccc(NC(=O)c3ccco3)cc2Cl)CC1 | 45.3 (≈ 142 µM)
CN(C)/C=C/C(=O)c1ccc(Oc2ncccn2)cc1 | > 40.4
Clc1ccc(SCc2csc(N3CCOCC3)n2)cc1 | 10.2 (≈ 31.2 µM)

Compound | solubility kinetic [µg/mL]
CCOc1cc(N2CCOCC2)c(OCC)cc1NC(=O)C(C)Oc1ccccc1 (centres undefined) | 43.6 (≈ 105 µM)
C[C@H](Nc1ccc(C(F)(F)F)cc1[N+](=O)[O-])C(=O)O.[Cl-] | > 47
CCn1cc(C(=O)NCCc2ccc(Cl)cc2)c(=O)c2ccc(C)nc21 | 5.1 (≈ 13.8 µM)
Cc1ccc(C)c(CSCc2nc3ccccc3[nH]2)c1 | 20.6 (≈ 72.9 µM)
Cc1ccc(C(=O)OC(C)C(=O)Nc2ccc3c(c2)OCO3)c(O)c1 (centres undefined) | 9.5 (≈ 27.7 µM)
CC(=O)Nc1ccc(S(=O)(=O)NCC(=O)OCC(=O)N2CC(C)OC(C)C2)cc1 (centres undefined) | > 64.1
O=C(Nc1ccc([N+](=O)[O-])cc1)C1COc2ccccc2O1 (centres undefined) | 0.9 (≈ 3 µM)
CC(C)[N+]1=C2C=CC=CC=C2SC12C([N+](=O)[O-])=CC(=[N+]([O-])[O-])C=C2[N+](=O)[O-] (centres undefined) | 1.3 (≈ 3.33 µM)
COCCCn1c(=O)c2ccccc2n(Cc2ccc(C)cc2)c1=O | 2.1 (≈ 6.21 µM)
COC(=O)c1c(NC(=O)C2CC(C)=C(C)CC2C(=O)O)sc2c1CCCCC2 (centres undefined) | 58.1 (≈ 143 µM)
O=C(Cc1ccccc1)c1c[nH]c(C(=O)C(Cl)(Cl)Cl)c1 | 28.1 (≈ 85 µM)
CCOC(=O)Cc1csc(NC(=O)Cc2ccc(Br)cc2)n1 | 5.9 (≈ 15.4 µM)
Cc1noc(C)c1C(=O)NCCc1c(C)[nH]c2ccccc12 | 41.5 (≈ 140 µM)
S=C(Nc1ccc(Oc2ccccc2)cc1)N1CCOCC1 | 42.8 (≈ 136 µM)
CCOC(=O)CNC(=O)Cc1ccc(Cl)cc1 | > 38.4
O=C(CSc1nc2ccc([N+](=O)[O-])cc2s1)NCC1CCCO1 (centres undefined) | 50.6 (≈ 143 µM)
Cc1ccc(C)c(NC(=O)CSc2nccn2Cc2ccco2)c1 | > 51.2
O=C(COC(=O)c1ccc(O)cc1)Nc1nccs1 | > 41.7
Nc1nc(Nc2cccc(Cl)c2)nc(NCCO)c1[N+](=O)[O-] | 6.5 (≈ 20 µM)
CCN1CCN(C(=O)/C=C/c2ccc(C)cc2)CC1 | > 38.8
CS(=O)(=O)N1CCN(C(=O)c2ccc3c(c2)OCCO3)CC1 | > 49
CC(=O)N(CCOc1ccccc1)CCOc1ccccc1 | > 44.9
Cn1ccc(C(=O)N/N=C/c2ccncc2)n1 | > 34.4
CN(C)CCNC(=O)C(=O)Nc1cc2c3c(c1)CCC(=O)N3CCC2 | 50.9 (≈ 148 µM)

Compound | solubility kinetic [µg/mL]
Cc1ccc(-c2csc(NC(=O)c3ccc(F)cc3)c2C(=O)O)cc1 | > 53.3
Cc1ccc(Nc2nc(-c3cccnc3)cs2)cc1Cl | 0.3 (≈ 0.994 µM)
CN(C)c1ccc(S(=O)(=O)N2CCCCC2)cc1NC(=O)C1=COCCO1 | 12 (≈ 30.3 µM)
Cn1cc(S(=O)(=O)N2CCNCC2)cc1C(N)=O | > 40.8
Cc1ccccc1-c1nc2ccc(Cl)cc2c(=O)n1O | > 43
O=C(COC(=O)c1ccc(Cl)nc1)NCc1cccs1 | 25.2 (≈ 81.1 µM)
Cc1onc(-c2ccccc2)c1CNC(=O)Nc1ccccc1 | > 46.1
COc1cccc(/C=C(\C#N)c2nc3ccccc3[nH]2)c1OCC(=O)O | > 52.4
CCOC(=O)c1sc2nc(C)nc(NCc3ccccc3)c2c1C | 0.3 (≈ 0.879 µM)
CCOc1ccccc1N1CCN(C(=O)CC(C)(C)C)CC1 | 45.1 (≈ 148 µM)
CC(OC(=O)c1cc2ccccc2[nH]1)C(=O)N(C)c1ccccc1 (centres undefined) | 3.8 (≈ 11.8 µM)
N#Cc1cccnc1N1CCC(C(N)=O)CC1 | > 34.5
S=C(NCc1ccco1)NC1CCCc2ccccc21 (centres undefined) | 36.4 (≈ 127 µM)
O=C(O)CCC(=O)N1CCN(Cc2ccc3c(c2)OCO3)CC1 | 28.1 (≈ 87.7 µM)
COC(=O)c1ccc(CNC(=O)c2ccc3c(c2)OCCO3)cc1 | 45.5 (≈ 139 µM)
CCCn1c(COc2ccccc2)nc2ccccc21 | 37.4 (≈ 140 µM)
COc1ccc(/C=C/C(=O)NC(=S)N2CCN(C)CC2)cc1 | > 47.9
CCOC(=O)C1=C(C)Nc2ccccc2S1 | 17.9 (≈ 76.1 µM)
Cc1c(C=O)c2ccccc2n1Cc1ccccc1 | 2.6 (≈ 10.4 µM)
Cc1ccc(S(=O)(=O)N2CCN(c3ccccc3)CC2)cc1C | < 0.4
O=S(=O)(c1cccc2ccccc12)N1CCCCC1 | 17.3 (≈ 62.8 µM)
Cc1ccc(CN2CCN(Cc3ccc(OC(C)C)cc3)CC2CCO)o1 (centres undefined) | 41.2 (≈ 111 µM)
COc1cc(NC(=O)CCCn2c(=O)oc3ccccc32)cc(OC)c1 | 24.2 (≈ 67.9 µM)
CCCCN(C)C(=O)c1cc2c(s1)-c1ccccc1S(=O)(=O)C2 | > 52.4

Compound | solubility kinetic [µg/mL]
N#Cc1ccccc1CSc1ncccc1C(=O)O | > 40.5
Cc1cccc(OCC(=O)NC2CCCC2)c1 | 31.5 (≈ 135 µM)
CC(=O)c1nc(-c2ccccc2)sc1C | 12.7 (≈ 58.4 µM)
Cl.O=S(=O)(N1CCCCCC1)N1CCNCC1 | > 42.6
COc1cc(OC)cc(C(=O)NCC(=O)N2CCN(Cc3ccccc3)CC2)c1 | > 59.6
CC(C)(C)c1ccc(-c2nc3n(c(=O)c2C#N)CCS3)cc1 | 3.5 (≈ 11.2 µM)
CC(C(=O)N1CCCC1)N(C)CC(=O)Nc1cccc(F)c1 (centres undefined) | 37 (≈ 120 µM)
Cc1ccc(NS(=O)(=O)c2ccc(C(=O)NCCN3CCOCC3)cc2)cc1.Cl | > 66
CN(CC(=O)Nc1ccc(OC(F)F)cc1)S(=O)(=O)/C=C/c1ccccc1 | 5.4 (≈ 13.6 µM)
NS(=O)(=O)c1ccc(SCc2ccccc2)nc1 | 10.4 (≈ 37.1 µM)
O=[N+]([O-])c1ccc(N2CCOCC2)cc1N1CCCCC1 | > 43.7
N#Cc1c(N2CCCC2)nsc1-c1ccccc1 | 0.4 (≈ 1.57 µM)
COc1cc2ccccc2cc1C(=O)N1CCN(c2ccccn2)CC1 | > 52.1
O=C(c1cc(-c2ccccc2)on1)N1CCCCCC1 | 39.1 (≈ 145 µM)
Cc1ccc2c(CN3CCC(C(N)=O)CC3)cc(=O)oc2c1C | 46.2 (≈ 147 µM)
Nc1ccc(C(=O)NCc2ccccc2)cc1 | > 33.9
Cc1ccc2oc(=O)n(CC(=O)OCCC(C)C)c2c1 | 16 (≈ 57.7 µM)
NC(=O)c1c(NC(=O)c2ccccc2Cl)sc2c1CCC2 | 0.7 (≈ 2.18 µM)
Cc1ccc(NCCC(=O)c2cccs2)cc1C | 18.1 (≈ 69.8 µM)
CC(Sc1nc(N)cc(=O)[nH]1)C(=O)N1CCOCC1 (centres undefined) | > 42.6
Cn1c(=O)c2[nH]cnc2n(C)c1=O | > 27
NC(=O)C1CCCc2c1n(Cc1ccccc1)c1ccccc21 (centres undefined) | 22.3 (≈ 73.3 µM)
O=C(CNC(=O)c1ccc(F)cc1)c1ccccc1 | > 38.6
CS(=O)(=O)c1ccc2nc(NC(=O)C3CC3)sc2c1 | 25.3 (≈ 85.4 µM)

Compound | solubility kinetic [µg/mL]
CC(=O)Nc1ccc(C(=O)OCC(=O)NCc2ccc3c(c2)OCO3)cc1 | 8.1 (≈ 21.9 µM)
Cc1nonc1NC(=O)CSc1nnc(N)s1 | > 40.8
CC(=O)N(C(C)=O)c1c(N2CCCC2)c2ccccc2oc1=O | 46.1 (≈ 147 µM)
CCOC(=O)Cn1nc(C)n(-c2ccc(F)cc2)c1=O | > 41.9
CC1(/[N+]([O-])=C/c2ccc(F)cc2)CCCCC1=O (centres undefined) | 28.3 (≈ 114 µM)
C=CCn1c(O)c(C2=c3ccccc3=NC2=O)c2ccccc21 | < 0.3
CC1CCN(C2CCN(C(=O)c3ccccc3F)CC2)CC1 | 34.7 (≈ 114 µM)
COC(=O)c1ccc(C(=O)OC)c(NC(=O)/C=C/C(=O)O)c1 | > 46.1
CCN(CC)C(=O)COc1c(-c2ccco2)oc2ccccc2c1=O | > 51.2
O=C(CSc1ccc(C(F)(F)F)cn1)Nc1ccccc1 | 16.8 (≈ 53.8 µM)
Cc1ccccc1OCC(=O)OCC(=O)N1CCc2ccccc21 | 1.8 (≈ 5.53 µM)
COc1cccc(CN(C)C(c2ccccc2)c2ccccc2)c1OC | 1.7 (≈ 4.89 µM)
O=C(CSC1=NCCN1)NC(c1ccccc1)c1ccccc1 | 44 (≈ 135 µM)
CCOC(=O)C1=C(O)/C(=C\c2ccc(O)c(OCC)c2)N=C1C | 36.1 (≈ 114 µM)
CCOC(=O)c1cnc(Nc2ccccc2)nc1C(F)(F)F | 2.1 (≈ 6.75 µM)
O=C(Nc1ccccn1)Nc1ccccc1Cl | 0.3 (≈ 1.21 µM)
O=C(NCCc1ccccc1)c1ccc(-c2ccc(F)cc2)o1 | 7.1 (≈ 23 µM)
CCOC(=O)c1sc(=NC(=O)CCSc2ccccc2)n(C)c1C | < 0.4
Cn1c(O)c(/C=N/N2CCOCC2)c(=O)n(-c2ccccc2)c1=S | > 52
CCOC(=O)c1cccc(NC(=O)c2ccc3c(c2)OCO3)c1 | 2.7 (≈ 8.62 µM)
COCC(=O)N1CCCC(C(=O)c2ccc(C(F)(F)F)cc2)C1 (centres undefined) | > 49.4
CC(C)(C)C1CCC(=NOC(=O)c2ccc(F)cc2)CC1 (centres undefined) | 1.3 (≈ 4.46 µM)
COc1cc(OC)cc(C(=O)NCC(=O)NCc2ccccn2)c1 | > 49.4
